According to patent US9260707B2, “Compounds for inhibition of MMP13-substrate interactions and methods of use thereof to treat osteoarthritis and cartilage degeneration” (ProteaPex Therapeutics, LLC, priority 2010, dated 2016):
Peptide text beside a SMILES is read from it.

Legend:
[1] = system: MMP; conditions: in vivo; cited from earlier work
[2] = system: MMP13; assay: MMP13 enzymatic activity in cartilage extracts with inhibitors; assay type: biochemical, avian
Experimental: Utilizing a standard curve with MMP13 and MMP9 catalytic domains (Enzo, Inc) we quantitated the amount of MMP13 and MMP9 activity in cartilage extracts (Table 4). Cartilage isolated from day 17 avian embryos contain 0.166 units and 0.152 units MMP13 per 40 μg total tissue in early hypertrophic and late hypertrophic tissue, respectively. […] Inclusion of an inhibitor of MMP13 (Calbiochem) reduces the activity in both cartilage populations by 24% and 30% respectively.

[3] = Toxicity in vivo by blood analysis; design: species or system rat
Experimental: Cytotoxicity was assessed by Alomar Blue Assay (Invitrogen) on primary chondrocytes and a monocyte cell line incubated for 24 hours with PxTx001-1. Absorbance was recorded at 570 nm for every hour up to 24 hrs to monitor both proliferation and metabolic activity. (FIG. 39). Toxicity in vivo was determined by blood analysis from rats that had been injected with the peptide as described previously. Total cell count, blood components and serum proteins were measured (Table 5).

[4] = system: resting cartilage tissue extract (LTBP1-containing TGFβ large latent complex); assay: Peptide binding assay, resting cartilage tissue extract; design: species or system avian; conditions: 100 nM fluorescent-labeled peptide
Text: (§1) Cartilage from day 17 avian embryo sterna was extracted with 0.5% CHAPS buffer and binding assays conducted. Scr=scrambled control; +cold=unlabeled competition. *=p<0.001 compared to scrambled. ***=p<0.001 compared to MMP13-derived peptide by ANOVA with Tukey's Analysis. (A) Resting cartilage and MMP13-19 peptide. (B) Hypertrophic cartilage and MMP13-19 peptide. (C) Hypertrophic cartilage and MMP13-10 peptide D. hypertrophic cartilage and MMP13-6 peptide.
(§2) Twenty-five micrograms of total equal protein from cartilage CHAPS extracts or five nanograms recombinant protein of the calcium-like EGF binding domain of LTBP1 (a kind gift of Sarah Dallas) or hypertrophic cartilage from day 17 avian embryo sterna and tibial growth plate cartilage from day 14 newborn rat pups were extracted with 0.5% CHAPS buffer and eluates immunoprecipitated with polyclonal antibody to LTBP1 and then samples were plated onto poly-L-lysine coated 96 well plates. After overnight drying, the protein-coated wells were incubated with 100 nM fluorescent-labeled peptide in Tris buffered saline [150 mM NaCl, 10 mM Tris, pH 8.0] and 20% horse serum for 4 hours at 16° C. After incubation, the wells are washed twice with binding buffer, the protein layer solubilized with 5N NaOH and fluorescence bound measured at 495 nm excitation and 520 nm emission on the LabSystems Fluoroskan Ascent CF plate reader. […]

[5] = system: hypertrophic cartilage tissue extract (LTBP1-containing TGFβ large latent complex); assay: Peptide binding assay, hypertrophic cartilage tissue extract; design: species or system avian; conditions: 100 nM fluorescent-labeled peptide
Text: as §1, §2

[6] = system: calcium-binding EGF-like domains of LTBP1 (CE-LTBP1); assay: Peptide binding to recombinant calcium-binding EGF-like domains of LTBP1 (CE-LTBP1)
Experimental: Binding assays utilizing intact hypertrophic chondrocyte-produced extracellular matrix, LTBP1 immunoprecipitates of hypertrophic chondrocyte-produced extracellular matrix and recombinant protein of the calcium-binding, EGF-like domains of LTBP1 (30) were performed as described in Materials and Methods. *=p<0.001 compared to scrambled. ***=p<0.001 compared to MMP13-derived peptide by ANOVA with Tukey's analysis. (A) Intact hypertrophic chondrocyte-produced extracellular matrix and MMP13-19 or MMP13-10 peptide binding. (B) 25 μg eluates of hypertrophic cartilage immunoprecipitated with polyclonal antibody to LTBP1 and MMP13-19 peptide binding. […]
as §2, with “After overnight drying, the protein-coated wells were incubated with 100 nM fluorescent-labeled peptide in Tris buffered saline [150 mM NaCl, 10 mM Tris, pH 8.0] and 20% horse serum for 4 hours at 16° C.” left out

[7] = system: hypertrophic chondrocyte-produced extracellular matrix (LTBP1 in native conformation); assay: Peptide binding to extracellular matrix of whole cell primary chondrocyte cultures; design: species or system avian
Experimental: Binding assays utilizing intact hypertrophic chondrocyte-produced extracellular matrix, LTBP1 immunoprecipitates of hypertrophic chondrocyte-produced extracellular matrix and recombinant protein of the calcium-binding, EGF-like domains of LTBP1 (30) were performed as described in Materials and Methods. *=p<0.001 compared to scrambled. ***=p<0.001 compared to MMP13-derived peptide by ANOVA with Tukey's analysis. (A) Intact hypertrophic chondrocyte-produced extracellular matrix and MMP13-19 or MMP13-10 peptide binding. (B) 25 μg eluates of hypertrophic cartilage immunoprecipitated with polyclonal antibody to LTBP1 and MMP13-19 peptide binding. (C) 15 ng of recombinant protein of the calcium-binding, EGF-like domains and MMP13-19 or MMP13-10 or MMP13-6 peptide binding.
Sterna were removed from day 17 chick embryos using microsurgical techniques as previously described (D'Angelo et al., J. Bone Miner. Res. 12:1368-1377, 1997). […] The cell suspensions were then filtered through a […] filter, counted, seeded onto Falcon 6-well, tissue culture treated plates and covered with 2 ml of high glucose DMEM containing 10% NuSerum and 50 μg/ml of penicillin/streptomycin, 2 mM of L-glutamine (Invitrogen Life Technologies, Carlsbad, Calif., USA). […]

[8] = system: mono-iodoacetate (MIA)-induced osteoarthritis; assay: MIA-induced osteoarthritis, cartilage mineralization (total and bone volume), d14 and d21; assay type: in vivo, rat; design: Total Volume / Bone Volume: unit not given here
Experimental: Isolated joints were analyzed by Micro CT to measure cortical bone, trabecular bone and cartilage of the patella, femur and tibia, the production of chondrophytes and tissue mineralization in response to treatment. Total mineralization in the patella, femur and tibial cartilages, as well as subchondral bone, were calculated with Scanco μCT software. Micro-CT was conducted with a Scanco uCT 35 (Scanco Medical, Bassersdorf, Switzerland) system. Scans of 15 μm voxel size, 55 KVp, 0.36 degrees rotation step (180 degrees angular range) and a 600 ms exposure per view produced from joints immersed in phosphate buffered saline.
Animals were treated with MMP13-19 peptide or BMP-7 protein once a week for two (d14) or three (d21) weeks following an injection of mono-iodoacetate (MIA), a chemical agent that induces osteoarthritis pathology measurable at four weeks post injection. The samples that received saline are the positive disease control. 250 nM of MMP13-19 peptide and 50 uM BMP-7 were injected laterally below the patellar ligament. […] But, it is also known that BMP-7 is bone-inducing.

[9] = system: MIA-induced OA model; assay: Acute treatment of MIA-induced OA, week 4 micro CT; assay type: in vivo, rat

In the case of `CC1(C)SCCN(S(=O)(=O)c2ccc(Oc3ccncc3)cc2)[C@H]1C(=O)NO` [prinomastat], the “side-effects in treatment of OA” value [1] is given as “severe side-effects known as MMP-induced musculoskeletal syndrome”.

For `COc1ccc(S(=O)(=O)N(Cc2cccnc2)[C@@H](C(=O)NO)C(C)C)cc1` [CGS-27023A], the “side-effects in treatment of OA” value [1] is given as “severe side-effects known as MMP-induced musculoskeletal syndrome”.

For `Cc1cc(CNC(=O)c2cc(C(=O)NCc3ccc(F)c(C)c3)ncn2)ccc1F` [MMP13 Inhibitor], the “reduction of MMP13 activity” value ([2]; early hypertrophic tissue) was 24% and the “reduction of MMP13 activity” value ([2]; late hypertrophic tissue) was 30%.

With `CC[C@H](C)[C@H](NC(=O)[C@H](CCCCN)NC(=O)[C@H](CCCCN)NC(=O)[C@@H](NC(=O)[C@H](CCC(=O)O)NC(=O)[C@H](CCCCN)NC(=O)[C@@H]1CCCN1C(=O)[C@H](CC(C)C)NC(=O)CNC(=O)[C@H](CC(C)C)NC(=O)[C@@H](N)CCC(=O)O)C(C)C)C(=O)N[C@@H](CO)C(=O)N[C@@H](C)C(=O)N[C@@H](C)C(=O)N[C@H](C(=O)N[C@@H](Cc1c[nH]cn1)C(=O)N[C@@H](Cc1ccccc1)C(=O)N[C@@H](CCC(=O)O)C(=O)N[C@@H](CC(=O)O)C(=O)O)C(C)C` [MMP13-19 peptide] (H-ELGLPKEVKKISAAVHFED-OH) the ALT ([3]; 1 injection) was 56 U/L, the AST ([3]; 1 injection) was 99 U/L and the “Alk Phos” value ([3]; 1 injection) was 272 U/L. It also gave a BUN ([3]; 1 injection) of 15 mg/dL, a Cholesterol ([3]; 1 injection) of 74 mg/dL and a Creatinine ([3]; 1 injection) of 0.4 mg/dL. For the same molecule, the RBC ([3]; 1 injection) was 5.59e+06 µL⁻¹, the “Total Bilirubin” value ([3]; 1 injection) was 0.3 mg/dL and the WBC ([3]; 1 injection) was 3600 µL⁻¹. The ALT ([3]; 4 injections) was 52 U/L, the AST ([3]; 4 injections) was 95 U/L and the “Alk Phos” value ([3]; 4 injections) was 194.5 U/L. It also gave a BUN ([3]; 4 injections) of 18 mg/dL, a Cholesterol ([3]; 4 injections) of 67.5 mg/dL and a Creatinine ([3]; 4 injections) of 0.3 mg/dL. For the same molecule, the RBC ([3]; 4 injections) was 6.9e+06 µL⁻¹, the “Total Bilirubin” value ([3]; 4 injections) was 1.1 mg/dL and the WBC ([3]; 4 injections) was 4550 µL⁻¹. The “total cell count, blood components and serum proteins (all parameters measured)” value ([3]; rats injected with the peptide) was “within normal ranges”.

In the case of “MMP13-6 peptide: amino acids 37-42 of SEQ ID NO: 1 (VDAELF; listed as Homo sapiens)”, the “binding compared to scrambled peptide control” value [4] is reported as “did not specifically bind”, the “binding compared to scrambled peptide control” value [5] is reported as “did not specifically bind” and the “binding of recombinant protein more than scrambled peptide” value [6] is reported as “did not bind specifically”. For the same molecule, the “binding compared to scrambled peptide” value [7] was “did not bind specifically”.

For “MMP13-10 peptide: amino acids 17-26 of SEQ ID NO: 1 (LRGETMIFKD; listed as Homo sapiens)”, the “binding compared to scrambled peptide control” value [4] was “less than two-fold”, the “binding compared to scrambled peptide control” value [5] was “less than two-fold” and the “binding of recombinant protein more than scrambled peptide” value [6] was “did not bind specifically”. For the same molecule, the “binding compared to scrambled peptide” value [7] was “four-fold”.

B1: BMP-7: BMP-7 protein, positive control, chondroprotective and bone-inducing (protein, UniProt P18075 293-431, looked up)
Bone morphogenetic protein 7: STGSKQRSQNRSKTPKNQEALRMANVAENSSSDQRQACKKHELYVSFRDLGWQDWIIAPEGYAAYYCEGECAFPLNSYMNATNHAIVQTLVHFINPETVPKPCCAPTQLNAISVLYFDDSSNVILKKYRNMVVRACGCH
For B1, the BV/TV ([8]; Patellar cartilage d14) was 0.0626, the “Bone Volume” value ([8]; Patellar cartilage d14) was 0.419 and the “Total Volume” value ([8]; Patellar cartilage d14, 250 nM peptide or 50 uM BMP-7 once a week) was 6.6967. The BV/TV ([8]; Patellar cartilage d21) was 0.0192, the “Bone Volume” value ([8]; Patellar cartilage d21) was 0.2037 and the “Total Volume” value ([8]; Patellar cartilage d21) was 10.7748. For the same molecule, the BV/TV ([8]; Total Joint Cartilage d14) was 0.0435, the “Bone Volume” value ([8]; Total Joint Cartilage d14) was 1.0643 and the “Total Volume” value ([8]; Total Joint Cartilage d14) was 24.4891. The BV/TV ([8]; Total Joint Cartilage d21) was 0.0412, the “Bone Volume” value ([8]; Total Joint Cartilage d21) was 0.9607 and the “Total Volume” value ([8]; Total Joint Cartilage d21) was 23.3101. The “BV/TV (ratio of bone volume to total volume)” value ([9]; Femur) was 0.2245 +/− 0.066, the “TbN (trabecular number)” value ([9]; Femur) was 4.200 +/− 0.830 and the “TbN (trabecular number)” value ([9]; Patella) was 6.2122 +/− 0.169. The “BV/TV (ratio of bone volume to total volume)” value ([9]; Patella, 250 nM peptide or 500 ng BMP7 weekly infrapatellar) was 0.6846 +/− 0.084, the “BV/TV (ratio of bone volume to total volume)” value ([9]; Tibia) was 0.1757 +/− 0.087 and the “TbN (trabecular number)” value ([9]; Tibia) was 4.9095 +/− 0.719.
